One series has as its target T1, murine SR-BI, isoform 1 (Mus musculus, UniProt Q61009).
T1 construct: expressed in transfected cells; host or cells: ldlA[mSR-BI], Chinese hamster ovary (CHO) cells lacking LDL receptor (Krieger Laboratory)
T1 sequence (Q61009 1-509): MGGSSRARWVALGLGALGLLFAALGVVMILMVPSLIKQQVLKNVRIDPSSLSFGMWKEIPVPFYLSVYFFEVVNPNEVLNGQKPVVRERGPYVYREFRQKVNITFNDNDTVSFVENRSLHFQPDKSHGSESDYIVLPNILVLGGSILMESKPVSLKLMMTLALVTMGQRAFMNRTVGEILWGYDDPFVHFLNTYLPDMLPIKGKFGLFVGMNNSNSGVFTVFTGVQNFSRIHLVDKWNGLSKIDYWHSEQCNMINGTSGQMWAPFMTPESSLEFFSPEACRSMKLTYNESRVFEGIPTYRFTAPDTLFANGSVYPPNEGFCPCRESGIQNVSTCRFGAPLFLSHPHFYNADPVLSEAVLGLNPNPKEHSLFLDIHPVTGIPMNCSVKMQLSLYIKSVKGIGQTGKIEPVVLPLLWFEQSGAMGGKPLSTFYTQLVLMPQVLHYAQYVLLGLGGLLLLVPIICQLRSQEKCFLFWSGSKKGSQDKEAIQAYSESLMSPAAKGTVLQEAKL
Description: DiI-HDL uptake assay (primary assay). It counts as cell-based. To be noted: ldlA[mSR-BI] cells, 3 hours with compound. As for the experimental part: The following cell lines were used in this study: • ldlA[mSR-BI] is a Chinese hamster ovary (CHO) cell line that overexpresses murine SR-BI, isoform 1 (NP_058021) and was obtained from the (Krieger Laboratory). This cell line was used for the primary assay and several secondary assays. […] Assays DiI-HDL Uptake Assay (Primary Assay AID Nos. 488896, 493194, 540354 588392, 588553, 588548, 588754, 588828, 588833)
ldlA[mSR-BI] cells were plated into 384-well plates at 30 μl per well and incubated overnight. As a measurable surrogate for cholesterol uptake, human HDL particles were treated with the lipophilic fluorescent dye DiI and exposed to ldlA[mSR-BI] cells in lipoprotein-free media (Ham's F12/0.5% fatty acid-free Bovine Serum Albumin (BSA)/25 mM HEPES pH 7.4 plus 10 μg protein/ml DiI-HDL). Cells took up the DiI via SR-BI over 3 hours in the presence of compound. After significant uptake of the DiI, the cells became fluorescent. The level of fluorescence correlates with the amount of DiI uptake and can be measured with a standard plate reader (here a PerkinElmer EnVision plate reader was used). The uptake of lipid (represented by DiI) was inhibited by the positive control compound BLT-1 or with an excess of HDL untreated with DiI. Primary HTS data were analyzed in Genedata Screener Assay Analyzer, and were normalized against DMSO and the positive control (1 μM BLT-1). For the HTS, the average of two replicates was used to rank order activity and to choose compounds for retests. For dose studies, percent (%) activity was determined for each concentration and the concentration response curves (CRCs) were generated with Genedata Condeseo.
To identify novel inhibitors, SR-BI-mediated lipid uptake was measured in an engineered cell line that minimized potential uptake by other mechanisms, including via the LDL receptor (1). ldlA[mSR-BI] cells overexpress murine isoform 1 and selectively take up HDL lipid at similar levels as “has been reported for cultured mouse adrenal cells, perfused organs, and liver, adrenal gland and ovary in vivo” (1). This primary cell-based assay was used in a pilot screen that identified BLTs 1 through 5. The assay was slightly modified from the original protocol of Nieland et al. to increase throughput and to ease automation procedures.
Briefly, the plate reader was switched to a Perkin-Elmer EnVision, several washing steps were eliminated, and the cell number per well was reduced without impacting the robustness of the assay. The automated assay was first tested with a validation set of 2,240 compounds. These compounds were tested in duplicate with in-plate neutral (DMSO) and positive (1 μM BLT-1) controls. Robustness, reproducibility, and variability parameters were analyzed before initiating the full HTS. The HTS was run over the course of several weeks. Data were normalized relative to controls, and plate patterns were corrected using a multiplicative algorithm in Genedata Screener Assay Analyzer. For each compound, the average of the two replicates was determined and used for subsequent analysis.

Series [1] concerns the target T2, SR-BI (Mus musculus, UniProt Q61009).
T2 sequence (Q61009 1-509): T1 sequence (Q61009 1-509)
To be noted: cited from earlier work.

The subject of a further series is HCVcc and HCVpp. To be noted: primary human hepatocytes and/or human hepatoma cell lines; cited from earlier work.
A further series concerns hepatitis C virus (HCV). Put plainly: In vitro testing with Huh-7.5 cells infected with HCV. It counts as cell-based. The conditions noted are these: for inhibition of HCV replication (in words): Huh-7.5 cells infected with Jcl 378-1 TagRFP (MOI=0.1), 3 dpi. The procedure: A series of tests were conducted using the compound of Formula II (CID53393835/ML279), other known inhibitors of SR-BI and controls with cells infected with hepatitis C virus (HCV). The cells (Huh-7.5 cells infected with Jcl 378-1 TagRFP (MOI=0.1) 3 dpi) were treated with the following SR-BI compounds and controls:
Three different infection protocols were followed: (1) no wash—virus inoculum was removed 4hpi and fresh medium containing compounds added without washing cells; (2) 5× wash—virus inoculum was removed 4hpi, cells were washed 5× with PBS and fresh medium containing compounds added; and (3) no wash Opt—infection were performed in serum-free OptiMem; virus inoculum was removed 4hpi and fresh medium containing compounds added without washing cells. FIG. 90 provides a comparison of the three different infection set-ups. FIG. 91 provides a comparison of two independent experiments.

Series [2] concerns endocytosis of transferrin. Description: Transferrin endocytosis assay. It counts as cell-based, Chinese hamster. To be noted: concentrations up to 35 μM. The text has this: Transferrin Endocytosis Assay (SA 3: AID No. 602134)
This assay measures the endocytosis of an independent ligand, transferrin, which is not taken up via SR-BI but by clathrin-mediated endocytosis; thus providing a measure of the selectivity of the inhibitors. Alexa-594-labeled transferrin is taken into the cell via endocytosis and localization of labeled transferrin can be quantitated in the various intracellular compartments. […] Inhibitors of interest should act selectively at SR-BI and should have no activity in this assay.
Cells were pre-treated with compound for 3 hours and then treated with the Alexa-594 transferrin reagent for 30 minutes (Catalog No. T-13343; Invitrogen) in serum-free media. Plates of cells were then placed onto ice, washed with ice cold PBS, and then fixed with 4% paraformaldehyde. In addition, the nuclei were stained with 300 nM 4′,6-diamidino-2-phenylindole (DAPI) (Catalog No. 21490; Invitrogen). The cells were imaged with the Molecular Devices IXM microscope. Translocation measurements were performed using MetaExpress software and normalized for cell number.

The next series relates to ldlA[mSR-BI] cells. Put plainly: Cell cytotoxicity assay (CellTiter-Glo). As for the experimental part: It is possible that a compound will cause cells to decrease HDL-mediated DiI uptake due to nonspecific consequences of cellular toxicity, representing a second class of false positive hits. The cells were treated with compounds for 3 hours or 24 hours, and then cell viability was measured using the CellTiter-Glo Assay (Promega), a luciferase-based reagent that measures cellular ATP levels. The compounds were tested at different concentrations to determine IC50 values. […] Data were normalized against DMSO and the positive control (1 μM BLT-1) in Genedata Assay Analyzer.
All available dry powder samples of the remaining, non-quenching compounds were procured from commercial sources and purities were determined. The compounds obtained were then retested in the primary assay and in cytotoxicity assays. We wanted to rule out any compounds that were cytotoxic, especially in the 3-hour time span of the primary DiI-HDL uptake assay. Therefore, compounds were tested in ldl[mSR-BI] cells for cytotoxicity at 3 hours and 24 hours using the CellTiter-Glo assay (Promega) that measures cellular ATP as a marker of cell viability. […] Compounds were screened for inhibition of endocytosis using labeled transferrin, which is known to bind the transferrin receptor, enter cells by clathrin-mediated endocytosis, and move to endosomes before being recycled to the cell surface.
On the technique in general: In ATP-based viability assays light output follows the ATP content of the culture.

A short description of the next series: Solubility in PBS. It counts as physicochemical. The conditions noted are these: PBS pH 7.4, 23° C., 1% DMSO. The procedure: We noticed that the concentration of the probe fluctuated through the course of the assay (data not shown). We believe that this fluctuation is due to the low kinetic solubility of the probe. Thus, we decided to determine the amount of undissolved probe present in the well after it was treated with PBS for a given length of time, relative to the amount of undissolved probe at the start of the assay. The wells were centrifuged and the supernatant was removed after various time points, then acetonitrile was added to dissolve the remaining solid in the wells, and the amount of probe was quantified. […] The stability of the probe was confirmed by measuring stability in human plasma, with >99% remaining after a 5-hour incubation period. […] FIG. 5 summarizes known properties of the probe.

Series [3] concerns the target T2, SR-BI. Description: HDL binding assay (Alexa 488 HDL). More on the design: expressed in transfected cells; host or cells: ldlA[mSR-BI], Chinese hamster ovary (CHO) cells lacking LDL receptor (Krieger Laboratory). It counts as cell-based, murine. To be noted: Alexa Fluor 488-labeled HDL. As for the experimental part: HDL binding was assessed using Alexa Fluor 488-labeled HDL particles. For this assay, the Alexa 488 dye was directly covalently bound to apolipoprotein components of the HDL particle via primary amines; thus, no transfer of the fluorophore to cell membranes occurs. Instead, direct binding of the HDL particles to SR-BI can be measured. As a positive control, BLT-1, which is known to increase binding, was used at 1 μM. It is possible that a compound can reduce binding of HDL to the receptor, and this would lead to a decrease in signal. This assay is used to characterize the mechanism of action of a particular compound; therefore, any outcome in the assay is acceptable. Data were normalized against DMSO and the positive control (1 μM BLT-1) in Genedata Assay Analyzer.

The conditions of series [4]: hamsters; cited from earlier work.
For series [5] the following is noted: mice; cited from earlier work.

Structures are written as SMILES. In brackets after ≈: the same amount, converted by molar mass. Like-named read-outs stand apart in the source and are kept apart here. Some results are limits rather than exact numbers.

Consider `C[C@@H](C(=O)NC1CCCC1)N(C(=O)Cn1nnc(-c2ccc3c(c2)OCO3)n1)C1CCCCC1` [(S)-isomer], for which the IC50 on murine SR-BI, isoform 1 was found to be 1.6 µM.
`COc1ccc(Cl)cc1C(=O)NCCc1ccc(S(=O)(=O)NC(=O)NC2CCCCC2)cc1` [glyburide]: the “cholesterol efflux inhibition (in words)” value on SR-BI [1] was “relatively weak inhibitor of cholesterol efflux”.
For the compound `COc1c(NC(=O)C(=O)c2ccc(OCCN3CCOCC3)c3ccccc23)cc(C(C)(C)C)cc1NS(C)(=O)=O` [ITX-5061], the “HCVcc and HCVpp infection (in words)” value in the series with HCVcc and HCVpp was “inhibit HCVcc and HCVpp infection”. Further, the IC50 on murine SR-BI, isoform 1 came to 0.254 µM. The “inhibition of HCV replication (in words)” value in the series on hepatitis C virus (HCV) (listed as 9) was “able to inhibit HCV replication”; in the series with hepatitis C virus (HCV) (listed as SRB1-9), “inhibited viral replication”. Also, the “mean fluorescence intensity (MFI) of HCV positive cells (in words)” value in the series on hepatitis C virus (HCV) (dose dependence) is listed as “this increase was not seen”.
As for `COc1ccc(-c2nnn(CC(=O)N(C3CCCCC3)C(C)C(=O)NC3CCCC3)n2)cc1OC` (centres unmarked) [MLS000888573, reference compound], in series [2], the “endocytosis of transferrin (in words)” value is recorded as “not grossly perturbing cellular membrane trafficking pathways”. Besides, the IC50 with ldlA[mSR-BI] cells (read-out: 3 h CellTiter-Glo IC50, 3 hours treatment) was more than 35 µM; in the series with ldlA[mSR-BI] cells (read-out: 24 h CellTiter-Glo cytotoxicity IC50, 24 hours treatment), more than 35 µM; on murine SR-BI, isoform 1, 0.051 µM; on murine SR-BI, isoform 1 (listed as hit compound), 0.058 µM. Besides, the solubility in the series “Solubility in PBS” is given as 114 µM (≈ 55.2 µg/mL). For the same compound, the AC50 at SR-BI [3] amounted to 0.6 µM.
As for `CC(C)(C)OC(=O)N1CCN(c2ccc(NC(=O)c3cc([N+](=O)[O-])ccc3Cl)cc2)CC1` [R-138329], the “HDL-cholesterol (in words)” value in [4] and in [5] was “increased HDL-cholesterol” throughout.
Turning to `COCC(=O)N1CCc2cc(-c3csc(NC(=O)c4cc(OC)cc(OC)c4)n3)ccc21` [ML278, reference compound], the IC50 at murine SR-BI, isoform 1 came to 0.00093 µM.

Broadly, the IC50 is the concentration that gives 50% inhibition. By solubility is commonly meant the concentration that dissolves in the medium under given conditions. The term AC50 denotes the concentration at which the activity in the assay is half-maximal. A low value points to activity at low concentration.

The values above are taken from patent US9884851B2, “Heterocycle-bisamide inhibitors of scavenger receptor BI” (THE BROAD INSTITUTE, INC., priority 2012, dated 2018).
